Article PMC8760490, “Discovery of novel furanylbenzamide inhibitors that target oncogenic tyrosine phosphatase SHP2 in leukemia cells” (The Journal of Biological Chemistry, 2021)

Key:
[1] = test system: mutant SHP2 (E76K) in live cells; design: method as in PMID 31953320, PMID 32744526; details: cellular thermal shift assay; cited from earlier work
BT-549 TNBC cells = assay: 11-day colony formation assay, BT-549; assay type: cell-based; details: 5, 10 or 20 μM, 11 days
Protocol: Inhibition of SHP2 has been reported to inhibit the growth of cancer cells including Kasumi-1 acute myeloid leukemia (AML) and KYSE-520 esophageal cancer cells ([30]). […] Thus, we treated two TNBC cell lines, BT-549 and MDA-MB-468, with SBI-4668 or the SHP2 allosteric inhibitor SHP099 at various concentrations and determined cell viability after 72 h, compared with the vehicle control (Fig. 4C). […] Next, we performed an 11-day colony formation assay with TNBC cells treated with SBI-4668 or SHP099 at 5, 10, or 20 μM (Fig. 4D).
MDA-MB-468 and […] triple-negative breast cancer cells were maintained in Dulbecco's modified Eagle's medium + 10% FBS supplemented with 1× penicillin–streptomycin/L-glutamine (Omega Scientific). About 1500 cells (in 300 μl) were seeded per well of a standard 24-well tissue culture plate (Falcon) and allowed to adhere for 24 h, before the addition of compound(s) as described. After a further 96 h, media were replaced with fresh media containing the same test compounds and concentrations. After 11 days, media were removed, and cells stained with 0.5% crystal violet (in 20% methanol; Sigma) for 20 min with agitation at 80 rpm. Stain was removed, and plates with stained cells were washed by being submerged in excess deionized water and allowed to air dry overnight before imaging.

[2] = test system: phospho-ERK1/2 (p-ERK1/2) in MOLM-13 AML cells; assay: p-ERK1/2 immunoblot, MOLM-13; assay type: cell-based; details: SBI-4668 3, 10, 30 μM, RMC-4550 1 μM
Protocol: (§1) Because SHP2 activity is critical for ERK activation, we used phospho-ERK1/2 (p-ERK1/2) as a more direct readout of SHP2 inhibitor efficacy. […] This p-ERK rebound in MOLM-13 cells treated with RMC-4550 is reminiscent of previously reported data from human hepatoma Hep3B cells treated with SHP099 ([34]). We also tested the effects of SBI-4668 or RMC-4550 on two patient-derived AML samples (Fig. 4F).
Cells cultured in RPMI medium were treated as indicated in the legends to the figures. Total protein extracts were prepared in modified radioimmunoprecipitation assay lysis buffer (25 mM Tris–HCl, pH 7.4, 10% glycerol, 0.2% Triton X-100, 150 mM NaCl, 2 mM Na3VO4, and 1 mM EDTA) containing a protease inhibitor cocktail (Roche Applied Science). Equal amounts of protein were separated on 4 to 12% (p-ERK1/2 blots) or 4 to 20% (SHP2 blots) Bis–Tris gels by SDS-PAGE and transferred to nitrocellulose (p-ERK1/2 blots) or 0.2 μm polyvinylidene fluoride (SHP2 blots) membranes. Membranes were blocked in 5% dry milk (Bio-Rad) in Tris-buffered saline–Tween-20 (TBS–T) (0.1% v/v) for 1 h at RT. Protein-bound membranes were incubated with indicated primary antibody overnight at 4 °C. After washing three times with TBS-T, membranes were incubated for 1 h with horseradish peroxidase–conjugated secondary antibody and then visualized by an ECL Prime detection system (GE Healthcare). Immunoblotting experiments were carried out at least three times, and representative images are shown. Densitometric quantitation of immunoblots was performed using Image Studio Lite Software (LI-COR). Changes of phosphorylated ERK1/2 to total ERK1/2 ratios are expressed as percentage of the vehicle-treated controls. The following antibodies were used: Phospho-Erk1/2 Ab (catalog no.: 9101S; Cell Signaling); total Erk1/2 Ab (catalog no.: 9102S; Cell Signaling); SHP2 Ab (catalog no.: A301-544A; lot no.: 1; Bethyl); and GAPDH (14C10) mAb (catalog no.: 2118S; lot no.: 14; Cell Signaling).

[3] = test system: patient-derived AML cells; assay: Viability of patient-derived AML cells; assay type: cell-based, human; details: 10 μM; 2, 4 or 6 days in culture
Text: as §1
Patient-derived AML cells were obtained from Carol Burian and Dr James Mason (Scripps MD Anderson Center) under approved Institutional Review Board protocol 13-6180. […] Final peripheral blood mononuclear cells were resuspended in Bambanker serum-free freezing medium (Wako Pure Chemical Industries, Ltd) and stored frozen before cell viability was assessed as described later.
Viability of AML and esophageal carcinoma cells was assessed using the ATP-depletion assay CellTiter-Glo (Promega). Cells were harvested at 1 × 10^6/ml to 2 × 10^6 cells/ml with cell numbers determined by trypan blue using the Countess Cell counter (Thermo Scientific) and resuspended in culture media. […] Luminescence was read on a Tecan Spark Multimode Microplate Reader, and data were analyzed using GraphPad Prism software.

O=C(Nc1ccccc1)c1cc(-c2ccc(/C=C3\Sc4ccccc4C3=O)o2)ccc1O [SBI-4668, (Z)-2-Hydroxy-5-(5-((3-oxobenzo[b]thiophen-2(3H)-ylidene)methyl)furan-2-yl)-N-phenylbenzamide]
cellular target engagement with mutant SHP2 [1]: direct target engagement
colony formation, BT-549 (BT-549 TNBC cells): undetectable
p-ERK1/2 levels, MOLM-13, 3 h ([2]; 3 h): dose-dependently inhibits ERK1/2 activation
p-ERK1/2 levels, MOLM-13, 24 h ([2]; 24 h): dose-dependently inhibits ERK1/2 activation
growth of two patient-derived AML samples [3]: inhibited the growth of both AML patient samples
